Legend:
[1] = target: T1, LasB S241G (Pseudomonas aeruginosa, UniProt P14756, S241G); assay: LasB variant inhibition, culture supernatant: S241G; type: biochemical, P. aeruginosa
T1 construct: endogenous in cells; host or cells: P. aeruginosa clinical CF isolate, culture supernatant
Text: Compounds 12 and 16 were discovered as a result of optimizing potency against the LasB protein expressed from the wild-type (WT) reference strain P. aeruginosa PAO1. To understand the relative prevalence of the WT LasB protein versus other variants in clinical respiratory P. aeruginosa strains, the full-length lasB gene was amplified by PCR from 255 clinical isolates (obtained from CF sputum samples). […] Most changes were identified in the mature peptide, however some occurred in the propeptide domain, which could affect LasB processing (marked in italics in Table 4).
LasB inhibition assays were performed using purified LasB enzyme (1 ng/well) for compound screening or using culture supernatants (prepared as described in the ECR assay) for testing LasB variants. Hydrolysis of the fluorogenic peptide substrate 2-aminobenzoyl-Ala-Gly-Leu-Ala-4-nitrobenzylamide (Abz-AGLA-Nba; Peptide International) in 50 mM Tris-HCl (pH 7.4), supplemented with 2.5 mM CaCl2 was followed using an Envision microplate reader (PerkinElmer) at 315 nm excitation and 430 nm emission. […] IC50 values were determined from Hill plots using Dotmatics Studies ELN software. For the mechanism of inhibition studies, hydrolysis rates were measured in the presence of variable concentrations of substrate and inhibitor, and the inhibition constant (Ki) was determined using Dixon plot analysis.[31]

[2] = Cytotoxicity screening (MTS), BSMC; type: cell-based; conditions: human, bronchial smooth muscle cells (BSMC)
Experimental: Bronchial smooth muscle cells (BSMC, Lonza CC-2576), small airway epithelial cells (SAEC, Lonza CC-2547), or HepG2 cells (ATCC HB-8065) were seeded in 96-well plates at a density of 25,000 per well. Culture of these cells throughout the protocol utilized incubation at 37 °C, 5% CO2 in a humidified atmosphere, with BSMC and SAEC cells cultured in cell-specific media (Lonza) and HepG2 cells cultured in RPMI 1640 medium containing Glutamax (Gibco) and 10% fetal bovine serum. Plates containing BSMC cells were collagen coated to assist with cell adhesion. Following an overnight settling period, media was replaced with fresh media, with, or without, compound. Compound concentrations tested were 1, 3, 10, 30, and 100 μM, in duplicate. The cells were incubated with compound for 24 h. Control (1% DMSO) and positive standards terfenadine- and salmeterol-treated groups were included for both cell lines. […] The reaction was stopped with 12.5 μL of 10% SDS, plates briefly shaken, and absorbance (490 nm) read using a Spectramax M5e plate reader (Molecular Devices). Percentages of viable cells were calculated as: (test sample Abs 490 nM-mean blank Abs 490 nm)/(mean control Abs 490 nM-mean blank Abs 490 nm) × 100.

T1 sequence (P14756 198-498 S241G): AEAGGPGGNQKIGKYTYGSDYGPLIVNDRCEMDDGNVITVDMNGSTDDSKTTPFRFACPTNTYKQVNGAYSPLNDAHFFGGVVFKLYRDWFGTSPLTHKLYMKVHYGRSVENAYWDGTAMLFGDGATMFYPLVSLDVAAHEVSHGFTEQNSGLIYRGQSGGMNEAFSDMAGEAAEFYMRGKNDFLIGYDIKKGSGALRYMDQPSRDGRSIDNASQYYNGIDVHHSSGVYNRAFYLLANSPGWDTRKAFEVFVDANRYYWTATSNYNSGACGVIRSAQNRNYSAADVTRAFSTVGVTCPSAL

Row | Compound | IC50 [1] | IC50 at 24 h [2]
1 | COc1cc2sc(CNC(=O)C3(CC(=O)O)Cc4cc(F)c(F)cc4C3)nc2cc1OCCC[N+](C)(CCO)CCO [Compound 16] | 206 nM | > 100000 nM
2 | COc1cc2sc(CNC(=O)C3(CC(=O)O)Cc4ccccc4C3)nc2cc1OCCC[N+](C)(C)C [Compound 12] | 221 nM | > 100000 nM

— paper PMC9926489, “Chemical Optimization of Selective Pseudomonas aeruginosa LasB Elastase Inhibitors and Their Impact on LasB-Mediated Activation of IL-1β in Cellular and Animal Infection Models” (ACS Infectious Diseases, 2023)
